According to patent US20140378408A1, “NUCLEOSIDE 5'-PHOSPHOROTHIOATE ANALOGUES AND USES THEREOF” (BAR-ILAN UNIVERSITY, an Israeli University, priority 2012, published 2014):
Where two headings read alike, the source gives them in different places.

Assays:
[1] = biological target: T1, human P2Y1-R (Homo sapiens, UniProt P47900); assay: [Ca^2+]i response of 1321N1 astrocytoma cells expressing P2Y1-R GFP; assay type: cell-based; conditions: for EC50: agonist, read-out: EC50 at the P2Y1 receptor
T1 construct: expressed in transfected cells; host or cells: 1321N1 astrocytoma cells
T1 sequence (P47900 whole entry): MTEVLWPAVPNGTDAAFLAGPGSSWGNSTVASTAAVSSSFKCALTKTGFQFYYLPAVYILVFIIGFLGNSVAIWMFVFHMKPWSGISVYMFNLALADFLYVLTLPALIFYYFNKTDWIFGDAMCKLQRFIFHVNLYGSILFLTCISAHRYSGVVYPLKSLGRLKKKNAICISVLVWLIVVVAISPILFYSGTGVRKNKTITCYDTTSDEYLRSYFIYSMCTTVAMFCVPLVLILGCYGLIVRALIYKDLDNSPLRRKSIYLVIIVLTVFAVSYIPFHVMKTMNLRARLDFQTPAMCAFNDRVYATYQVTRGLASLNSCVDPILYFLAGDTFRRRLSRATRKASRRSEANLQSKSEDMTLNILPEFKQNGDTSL
Description: GFP constructs of human P2Y2-R, P2Y1-R and P2Y11-R were stably expressed in 1321N1 astrocytoma cells, which lack endogenous expression of P2X- and P2Y-receptors. The respective cDNA of the receptor gene was cloned into a pEGFPN1 vector and after transfection, using FuGENE 6 Transfection Reagent (Roche Molecular Biochemicals, Mannheim, Germany), cells were selected with 0.5 mg/ml G418 (geneticine; Merck Chemicals, Darmstadt, Germany) and grown in DMEM supplemented with 10% serum (FCS), 100 U/ml penicillin and 100 U/ml streptomycin at 37° C. and 5% CO2. The expression and cell membrane localization of the respective P2Y receptors was confirmed through the analysis of the GFP fluorescence. The functionality of the expressed GFP-labeled receptor in cells was verified by recording a change of [Ca^2+]i after stimulation with the appropriate receptor agonist.
1321N1 astrocytoma cells transfected with the respective plasmid for P2Y-R-GFP expression plated on coverslips (22 mm diameter) and grown to approximately 80% density, were incubated with 2 μM fura 2/AM and 0.02% pluronic acid in Na-HBS buffer (Hepes buffered saline: 145 mM NaCl, 5.4 mM KCl, 1.8 mM CaCl2, 1 mM MgCl2, 25 mM glucose, 20 mM Hepes/Tris pH 7.4) for 30 min at 37° C. The cells were superfused (1 ml/min, 37° C.) with different concentrations of nucleotide in Na-HBS buffer. The nucleotide-induced change of [Ca^2+] was monitored by detecting the fluorescence intensities with excitations at 340 nm and 380 nm. Only GFP-labeled cells were analyzed. Microsoft Excel (Microsoft Corp., Redmond, Wash., USA) and SigmaPlot (SPSS Inc., Chicago, Ill., USA) were used to derive the concentration-response curves and EC50 values from the average response amplitudes obtained in at least three independent experiments (Ecke et al., 2006; Ecke et al., 2008). Only cells with a clear GFP-signal and with the typical calcium response kinetics upon agonist pulse application were included in the data analysis. The nucleotide induced change of [Ca^2+]i was monitored by detecting the respective emission intensity of fura 2/AM at 510 nm with 340 nm and 380 nm excitations (Ubl et al., 1998). The average maximal amplitude of the responses and the respective standard errors were calculated from ratio of the fura 2/AM. The GFP-tagged P2Y receptors are suitable for pharmacological and physiological studies, as previously reported (Tulapurkar et al., 2004; Tulapurkar et al., 2006; Zylberg et al., 2007).

[2] = tested on: PC12 cells; assay: Toxicity at PC12 cells (MTT assay); assay type: cell-based
Description: The results shown are the mean±S.D of three independent experiments in triplicate.
In this study, the toxicity of APCPP-γ-S, at 1-1000 μM, at PC12 cells was tested by MTT assay. […] At 1000 μM, 75% of the cells were still viable.

[3] = biological target: T2, TNAP (Homo sapiens, UniProt P05186); assay: Hydrolysis by TNAP; assay type: in vitro ADME; conditions: 1 h
T2 sequence (P05186 18-501): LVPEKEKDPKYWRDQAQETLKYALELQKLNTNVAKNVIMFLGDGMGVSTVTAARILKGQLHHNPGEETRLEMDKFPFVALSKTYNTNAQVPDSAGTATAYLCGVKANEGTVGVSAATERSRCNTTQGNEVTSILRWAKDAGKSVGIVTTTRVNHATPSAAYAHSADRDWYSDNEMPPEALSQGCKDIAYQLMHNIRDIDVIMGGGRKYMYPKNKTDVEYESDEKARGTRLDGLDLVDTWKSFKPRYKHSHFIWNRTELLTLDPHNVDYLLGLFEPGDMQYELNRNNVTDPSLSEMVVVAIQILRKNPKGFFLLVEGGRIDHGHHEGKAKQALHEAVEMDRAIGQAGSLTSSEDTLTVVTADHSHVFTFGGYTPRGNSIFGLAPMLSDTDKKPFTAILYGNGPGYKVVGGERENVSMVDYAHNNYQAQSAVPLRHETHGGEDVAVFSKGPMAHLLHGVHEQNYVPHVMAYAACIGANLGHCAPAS
Excerpt: The metabolic stability of APPCCl2P-α-S (isomer A) and APCPP-γ-S was further proven by their resistance to enzymatic hydrolysis by TNAP.

[4] = tested on: PC12 cells; assay: Inhibition of Fe(II)-induced ROS formation in PC12 cells (DCFH-DA); assay type: cell-based; conditions: read-out: IC50 inhibition of ROS formation
Description: In this study, nucleoside 5′-phosphorothioate analogues were explored as inhibitors of Fe(II)-induced oxidative stress in PC12 cells used as a neuronal model. Reduction of ROS production in PC12 cells by each one of the tested analogues was measured by DCFH-DA, a radical sensitive indicator. After DCFH-DA was removed, the tested analogue was added to the cells at a final concentration of 0.2-200 μM. Oxidation was initiated by the addition of FeSO4 (0.16 μM) to the wells. The plates were incubated for 1 h at 37° C., during which the absorbance was read by a Tecan fluorometer at 485/530 nm.

SMILES | EC50 [1] | viable cells ([2]; 1000 μM) | Hydrolysis by TNAP [3] | further results
Nc1ncnc2c1ncn2[C@@H]1O[C@H](COP(O)(=S)OP(=O)(O)C(Cl)(Cl)P(=O)(O)O)[C@@H](O)[C@H]1O (single isomer, unassigned) [APPCCl2P-α-S, adenosine 5′-[Pα-thio]-β,γ-(dichloromethylene)triphosphate] | > 10 µM | 75% |  | viable cells ([2]; 100 μM): 100%
Nc1ncnc2c1ncn2[C@@H]1O[C@H](COP(O)(=S)OP(=O)(O)C(Cl)(Cl)P(=O)(O)O)[C@@H](O)[C@H]1O (single isomer, unassigned; isomer a) [APPCCl2P-α-S (isomer A), adenosine 5′-[Pα-thio]-β,γ-(dichloromethylene)triphosphate] |  |  | fully stable | 
Nc1ncnc2c1ncn2[C@@H]1O[C@H](COP(=O)(O)OP(O)(O)=S)[C@@H](O)[C@H]1O [ADP-β-S, adenosine 5′-[β-thio]diphosphate, reference compound] |  |  |  | IC50 ([4]; PC12 cells, FeSO4 0.16 μM, 1 h, DCFH-DA): 26 µM
Nc1ncnc2c1ncn2[C@@H]1O[C@H](COP(=O)(O)CP(=O)(O)OP(O)(O)=S)[C@@H](O)[C@H]1O [APCPP-γ-S, adenosine 5′-[Pγ-thio]-α,β-methylenetriphosphate] | > 10 µM | 75% | 2.5% | no activity at the P2Y1 receptor up to (concentration) [1]: up to 10 μM; reduction of cell viability ([2]; 1000 μM): 25%; not toxic up to (concentration) ([2]; 24 h): up to 100 μM; IC50 ([4]; Rattus norvegicus, PC-12, 1 h): 0.16 µM
